Reference: patent publication US8642801B2 (BHI Limited Partnership, priority 2003, dated 2014)

Target: T1, Aβ40 and Aβ42 peptides in plasma and brain of TgCRND8 mice (Homo sapiens, UniProt P05067)
T1 construct: ELISA using Human Aβ40 and Aβ42 Fluorometric ELISA kits from Biosource; from tissue; host or cells: plasma and brain homogenate of TgCRND8 transgenic mice (hAPP transgene)
Experiment: Short term treatment in adult transgenic CRND8 mice overexpressing βAPP: Aβ levels in plasma and brain by ELISA
Type: in vivo, Mouse
Conditions: Brain Homogenate Vehicle Group, Day 14; TgCRND8 mice, 250 mg/kg daily
From the text: Transgenic mice, […]8, expressing the human amyloid precursor protein (hAPP) develop a pathology resembling Alzheimer's disease. In particular, high levels of Aβ40 and Aβ 42 have been documented in the plasma and the brain of these animals at 8-9 weeks of age, followed by early accumulation of amyloid plaques similar to the senile plaques observed in AD patients. These animals also display progressive cognitive deficits that parallel the appearance of degenerative changes. See, […], et al., J. Biol. Chem. 276, 21562-70 (2001). The short term therapeutic effect of 19 compounds of the invention was studied. […] The following abbreviations are used to designate these animals from the 3rd and 4th generation backcross in the present protocol: TgCRND8-2.B6C3F1(N3); TgCRND8-2.B6C3F1(N4). Baseline animals (Group 1) consisted of naive TgCRND8-2. B6C3F1(N3) at 11±1 weeks of age. These mice were used to determine the Aβ levels in the plasma and brain of naive transgenic animals at the initiation of treatment. […] At the end of the treatment periods, plasma and perfused brains were collected for quantification of Aβ levels. […] Plasma samples were immediately frozen and stored at -80° C. pending analysis. The brains were removed, frozen, and stored at -80° C. awaiting analysis. […] Samples were spun at 15000 g for 20 minutes and the supernatants were transferred to fresh tubes. […] The tubes were vortexed for 30 seconds and frozen at -80° C. […] Samples were thawed at room temperature, sonicated at 80° C. for 15 minutes and frozen again. This cycle was repeated 3 times to ensure homogeneity and samples were returned to -80° C. pending analysis. Aβ levels were evaluated in plasma and brain samples by ELISA using Human Aβ40 and Aβ42 Fluorometric ELISA kits from Biosource (Cat. […] In short, samples were thawed at room temperature, sonicated for 5 minutes at 80° C. (sonication for brain homogenates; no sonication for plasma samples) and kept on ice. Aβ peptides were captured using 100 μl of the diluted samples to the plate and incubated without shaking at 4° C. overnight. The samples were aspirated and the wells were rinsed 4 times with wash buffer obtained from the Biosource ELISA kit. The anti-Aβ40 or anti-Aβ42 rabbit polyclonal antiserum (specific for the Aβ40 or Aβ42 peptide) was added (100 μl) and the plate was incubated at room temperature for 2 hours with shaking. The wells were aspirated and washed 4 times before adding 100 μl of the alkaline phosphatase labeled anti-rabbit antibody and incubating at room temperature for 2 hours with shaking. The plates were then rinsed 5 times and the fluorescent substrate (100 μl) was added to the plate. The plate was incubated for 35 minutes at room temperature and the plate was read using a titer plate reader at an excitation wavelength of 460 nm and emission at 560 nm Compounds were scored based on their ability to modulate levels of Aβ peptides in the plasma and the cerebral soluble/insoluble levels in the brain. Levels of Aβ observed in the plasma and brain of treated animals were normalized using values from vehicle-treated (water) or methylcellulose-treated control groups and ranked according to the strength of the pharmacological effect. Increases in the levels of Aβ peptides are indicated using “+” symbols, while decreases in the levels of Aβ peptides are indicated using “-” symbols. The strongest effects are recorded as “+++” or “- - -” while the weakest are shown as “+” or “-”.

Row | Compound | Brain homogenate Aβ40 Change Insoluble | Brain homogenate Aβ42 Change Insoluble | Brain homogenate Aβ42 Change Soluble | Brain homogenate Aβ40 Change Soluble
1 | C#CC1(NCCCS(=O)(=O)O)CCCCC1 [DX, 3-(1-ethynylcyclohexyl)amino-1-propanesulfonic acid] | −− (decreases of 20 to 38% are scored as “− −”) | − (Decreases in the levels of Aβ of 5 to 19% are scored as “−”) |  | 
2 | O=S(=O)(O)CC(O)CNC1CCCCC1 (stereo not drawn) [DC] | −− (decreases of 20 to 38% are scored as “− −”) | −− (decreases of 20 to 38% are scored as “− −”) | + (increases in the levels of Aβ (relative to untreated control) of 20 to 39% are scored as “+”) | 
3 | CC(C)(NCCCS(=O)(=O)O)c1ccccc1 [DM, 3-cumylamino-1-propanesulfonic acid] | + (increases in the levels of Aβ (relative to untreated control) of 20 to 39% are scored as “+”) | − (Decreases in the levels of Aβ of 5 to 19% are scored as “−”) | − (Decreases in the levels of Aβ of 5 to 19% are scored as “−”) | 
4 | O=S(=O)(O)CCCNC1CC2CCC1C2 (stereo not drawn) [BY, 3-(2-norbornyl)amino-1-propanesulfonic acid] | +++ (increases of 70% or higher are scored as “+ + +”) |  | +++ (increases of 70% or higher are scored as “+ + +”) | +++ (increases of 70% or higher are scored as “+ + +”)
5 | COCC(NCCCS(=O)(=O)O)[C@@H](O)c1ccccc1 (stereo in doubt) [EG, 3-[(1R,2S)-2-hydroxy-1-(methoxymethyl)-2-phenylethyl]amino-1-propanesulfonic acid] | −− (decreases of 20 to 38% are scored as “− −”) | −− (decreases of 20 to 38% are scored as “− −”) | −− (decreases of 20 to 38% are scored as “− −”) | − (Decreases in the levels of Aβ of 5 to 19% are scored as “−”)
6 | O=S(=O)(O)CCCNCC(O)c1ccccc1 (stereo not drawn) [DY] | −− (decreases of 20 to 38% are scored as “− −”) | −− (decreases of 20 to 38% are scored as “− −”) |  | 
7 | COc1ccc([C@H](C)NCCCS(=O)(=O)O)cc1 [DZ, 3-[(S)-1-(4-methoxyphenyl)ethyl]amino-1-propanesulfonic acid] |  | −− (decreases of 20 to 38% are scored as “− −”) |  | 
8 | CC(C)(CO)NCCCS(=O)(=O)O [DH, 3-(1,1-dimethyl-2-hydroxyethyl)amino-1-propanesulfonic acid] | −− (decreases of 20 to 38% are scored as “− −”) | −−− (decreases of 39% or more are scored as “− − −”) | −−− (decreases of 39% or more are scored as “− − −”) | 
9 | CC1CC(NCCCS(=O)(=O)O)CC(C)(C)C1 (stereo not drawn) [ED, 3-(3,3,5-trimethylcyclohexyl)amino-1-1-propanesulfonic acid] | + (increases in the levels of Aβ (relative to untreated control) of 20 to 39% are scored as “+”) |  |  | − (Decreases in the levels of Aβ of 5 to 19% are scored as “−”)
10 | CCC(CC)NCCCS(=O)(=O)O [DD, 3-(3-pentyl)amino-1-propanesulfonic acid] | − (Decreases in the levels of Aβ of 5 to 19% are scored as “−”) |  |  | 

Same assay, conditions: Brain Homogenate Vehicle Group, Day 14; total levels, soluble and insoluble not measured independently; 250 mg/kg daily

Row | Compound | Brain homogenate Aβ40 Change, total level
11 | CCNCCCS(=O)(=O)O [CV, 3-ethylamino-1-propanesulfonic acid] | − (Decreases in the levels of Aβ of 5 to 19% are scored as “−”)

Same assay, conditions: Brain Homogenate Vehicle Group, Day 28; TgCRND8 mice, 250 mg/kg daily

Row | Compound | Brain homogenate Aβ40 Change Insoluble | Brain homogenate Aβ42 Change Insoluble | Brain homogenate Aβ42 Change Soluble | Brain homogenate Aβ40 Change Soluble
12 | C#CC1(NCCCS(=O)(=O)O)CCCCC1 [DX, 3-(1-ethynylcyclohexyl)amino-1-propanesulfonic acid] | −− (decreases of 20 to 38% are scored as “− −”) | −− (decreases of 20 to 38% are scored as “− −”) | − (Decreases in the levels of Aβ of 5 to 19% are scored as “−”) | 
13 | O=S(=O)(O)CC(O)CNC1CCCCC1 (stereo not drawn) [DC] | + (increases in the levels of Aβ (relative to untreated control) of 20 to 39% are scored as “+”) | +++ (increases of 70% or higher are scored as “+ + +”) | ++ (increases of 40 to 69% are scored as “++”) | − (Decreases in the levels of Aβ of 5 to 19% are scored as “−”)
14 | CC(C)(NCCCS(=O)(=O)O)c1ccccc1 [DM, 3-cumylamino-1-propanesulfonic acid] | −− (decreases of 20 to 38% are scored as “− −”) | −− (decreases of 20 to 38% are scored as “− −”) | −− (decreases of 20 to 38% are scored as “− −”) | − (Decreases in the levels of Aβ of 5 to 19% are scored as “−”)
15 | O=S(=O)(O)CCCNC1CC2CCC1C2 (stereo not drawn) [BY, 3-(2-norbornyl)amino-1-propanesulfonic acid] | +++ (increases of 70% or higher are scored as “+ + +”) | +++ (increases of 70% or higher are scored as “+ + +”) |  | + (increases in the levels of Aβ (relative to untreated control) of 20 to 39% are scored as “+”)
16 | COCC(NCCCS(=O)(=O)O)[C@@H](O)c1ccccc1 (stereo in doubt) [EG, 3-[(1R,2S)-2-hydroxy-1-(methoxymethyl)-2-phenylethyl]amino-1-propanesulfonic acid] | −− (decreases of 20 to 38% are scored as “− −”) | −− (decreases of 20 to 38% are scored as “− −”) |  | 
17 | O=S(=O)(O)CCCNCC(O)c1ccccc1 (stereo not drawn) [DY] | −−− (decreases of 39% or more are scored as “− − −”) | −− (decreases of 20 to 38% are scored as “− −”) | − (Decreases in the levels of Aβ of 5 to 19% are scored as “−”) | 
18 | COc1ccc([C@H](C)NCCCS(=O)(=O)O)cc1 [DZ, 3-[(S)-1-(4-methoxyphenyl)ethyl]amino-1-propanesulfonic acid] | −− (decreases of 20 to 38% are scored as “− −”) | −− (decreases of 20 to 38% are scored as “− −”) | −− (decreases of 20 to 38% are scored as “− −”) | − (Decreases in the levels of Aβ of 5 to 19% are scored as “−”)
19 | CC(C)(CO)NCCCS(=O)(=O)O [DH, 3-(1,1-dimethyl-2-hydroxyethyl)amino-1-propanesulfonic acid] | − (Decreases in the levels of Aβ of 5 to 19% are scored as “−”) | − (Decreases in the levels of Aβ of 5 to 19% are scored as “−”) |  | 
20 | CC1CC(NCCCS(=O)(=O)O)CC(C)(C)C1 (stereo not drawn) [ED, 3-(3,3,5-trimethylcyclohexyl)amino-1-1-propanesulfonic acid] | −− (decreases of 20 to 38% are scored as “− −”) | − (Decreases in the levels of Aβ of 5 to 19% are scored as “−”) | − (Decreases in the levels of Aβ of 5 to 19% are scored as “−”) | − (Decreases in the levels of Aβ of 5 to 19% are scored as “−”)
21 | CCC(CC)NCCCS(=O)(=O)O [DD, 3-(3-pentyl)amino-1-propanesulfonic acid] | − (Decreases in the levels of Aβ of 5 to 19% are scored as “−”) |  |  | 

Same assay, conditions: Brain Homogenate Vehicle Group, Day 28; total levels, soluble and insoluble not measured independently; 250 mg/kg daily

Row | Compound | Brain homogenate Aβ40 Change, total level | Brain homogenate Aβ42 Change, total level
22 | CCNCCCS(=O)(=O)O [CV, 3-ethylamino-1-propanesulfonic acid] | ++ (increases of 40 to 69% are scored as “++”) | +++ (increases of 70% or higher are scored as “+ + +”)

Same assay, conditions: Plasma Vehicle Group, Day 14; TgCRND8 mice, 250 mg/kg daily subcutaneous, normalized to water vehicle control

Row | Compound | Plasma Aβ40 Change | Plasma Aβ42 Change
23 | O=S(=O)(O)CC(O)CNC1CCCCC1 (stereo not drawn) [DC] | ++ (increases of 40 to 69% are scored as “++”) | ++ (increases of 40 to 69% are scored as “++”)
24 | O=S(=O)(O)CCCNC1CC2CCC1C2 (stereo not drawn) [BY, 3-(2-norbornyl)amino-1-propanesulfonic acid] | + (increases in the levels of Aβ (relative to untreated control) of 20 to 39% are scored as “+”) | + (increases in the levels of Aβ (relative to untreated control) of 20 to 39% are scored as “+”)
25 | CCNCCCS(=O)(=O)O [CV, 3-ethylamino-1-propanesulfonic acid] | + (increases in the levels of Aβ (relative to untreated control) of 20 to 39% are scored as “+”) | ++ (increases of 40 to 69% are scored as “++”)

Same assay, conditions: Plasma Vehicle Group, Day 28; TgCRND8 mice, 250 mg/kg daily subcutaneous, normalized to water vehicle control

Row | Compound | Plasma Aβ40 Change | Plasma Aβ42 Change
26 | O=S(=O)(O)CC(O)CNC1CCCCC1 (stereo not drawn) [DC] | ++ (increases of 40 to 69% are scored as “++”) | 
27 | CCNCCCS(=O)(=O)O [CV, 3-ethylamino-1-propanesulfonic acid] | ++ (increases of 40 to 69% are scored as “++”) | ++ (increases of 40 to 69% are scored as “++”)
